Source: publication PMC10307805, “DprE2 is a molecular target of the anti-tubercular nitroimidazole compounds pretomanid and delamanid” (Nature Communications, 2023)

Legend:
Assay type in all cases: biochemical
[1] = biological target: DprE1 (decaprenylphosphoryl-β-D-ribose oxidase) (Mycobacterium tuberculosis, UniProt P9WJF1); test: resazurin reduction fluorescence assay with GGPR (also […] on Mt-DprE1-DprE2 complex)
[2] = biological target: T1, Ddn (deazaflavin F420-dependent nitroreductase) (Mycobacterium tuberculosis, UniProt P9WP15)
T1 construct: recombinant Ddn, SUMO tag removed

[3] = biological target: T2, DprE2 (decaprenylphosphoryl-2-keto-β-D-erythro-pentose reductase) (Mycobacterium tuberculosis, UniProt P9WGS9); test: […]; also IC50 […] and radiolabeled DPR epimerization TLC
[4] = biological target: T2, DprE2 (decaprenylphosphoryl-2-keto-β-D-erythro-pentose reductase)

T2 sequence (P9WGS9 whole entry, looked up): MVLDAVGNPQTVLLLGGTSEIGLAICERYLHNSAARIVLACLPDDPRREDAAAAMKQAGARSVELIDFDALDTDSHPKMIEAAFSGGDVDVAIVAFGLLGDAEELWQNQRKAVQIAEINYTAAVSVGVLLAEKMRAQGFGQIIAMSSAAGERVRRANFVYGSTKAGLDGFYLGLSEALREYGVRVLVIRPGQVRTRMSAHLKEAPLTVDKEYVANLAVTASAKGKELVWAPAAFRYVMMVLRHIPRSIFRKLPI
Chain of DprE1 (decaprenylphosphoryl-β-D-ribose oxidase) (P9WJF1 whole entry): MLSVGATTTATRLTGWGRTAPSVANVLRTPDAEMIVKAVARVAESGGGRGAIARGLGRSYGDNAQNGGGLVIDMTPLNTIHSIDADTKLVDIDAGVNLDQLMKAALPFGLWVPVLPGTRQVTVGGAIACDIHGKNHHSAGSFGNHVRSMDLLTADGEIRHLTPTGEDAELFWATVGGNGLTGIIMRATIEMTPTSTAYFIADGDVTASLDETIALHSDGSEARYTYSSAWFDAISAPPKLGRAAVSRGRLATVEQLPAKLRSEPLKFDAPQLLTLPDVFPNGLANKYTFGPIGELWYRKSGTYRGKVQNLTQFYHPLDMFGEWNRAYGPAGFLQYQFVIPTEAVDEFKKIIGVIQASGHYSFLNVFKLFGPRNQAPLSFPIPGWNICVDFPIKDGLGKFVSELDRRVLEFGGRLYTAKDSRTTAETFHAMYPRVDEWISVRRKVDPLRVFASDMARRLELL
T1 sequence (P9WP15 whole entry): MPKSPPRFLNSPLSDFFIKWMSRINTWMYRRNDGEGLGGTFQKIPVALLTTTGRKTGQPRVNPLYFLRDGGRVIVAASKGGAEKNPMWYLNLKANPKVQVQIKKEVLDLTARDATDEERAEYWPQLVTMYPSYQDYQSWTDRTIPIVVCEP

In the case of BTZ, the IC50 [1] is reported as 11.8 ± 0.7 µM.

With O=[N+]([O-])c1cn2c(n1)OC[C@@H](OCc1ccc(OC(F)(F)F)cc1)C2 [pretomanid] the “pro-drug activation by purified Ddn with Fgd1/F420, read out by DprE2 inhibition” value [2] was “upon activation of the pretomanid by Ddn, there was a dose-dependent reduction in Mt-DprE2 activity”.

Ddn-activated pretomanid showed a Ki [3] of 1.5 ± 0.4 µM.

With NC(=O)C1=CN([C@@H]2O[C@H](COP(=O)(O)OP(=O)(O)OC[C@H]3O[C@@H](n4cnc5c(N)ncnc54)[C@H](OP(=O)(O)O)[C@@H]3O)[C@@H](O)[C@H]2O)C=CC1 [NADPH] the “NADPH oxidation fluorescence assay with NADPH titration” value [4] was “DprE2 activity was monitored through a change in fluorescence due to the oxidation of the DprE2 cofactor, NADPH”.
